Measured values: PMC10746543, “Design principles for cyclin K molecular glue degraders” (Nature Chemical Biology, 2023)
Several values for one entry are separate records, joined by “and”; a condition that tells them apart may be missing. Equal values may be shown once.

Target: T1, CDK12–cyclin K and DDB1 (Homo sapiens, UniProt Q16531+Q9NYV4, K965R)
T1 construct: His6–CDK12 (a.a. 713–1,052); full-length or beta-propeller B domain deletion (ΔBPB: a.a. 396–705 deleted) constructs of His6–DDB1ΔBPB, StrepII–Avi–DDB1, or His6–Spy–DDB1; made in house; host or cells: Trichoplusia ni High Five insect cells (baculovirus)
T1 sequence (Q9NYV4 713-1052 K965R): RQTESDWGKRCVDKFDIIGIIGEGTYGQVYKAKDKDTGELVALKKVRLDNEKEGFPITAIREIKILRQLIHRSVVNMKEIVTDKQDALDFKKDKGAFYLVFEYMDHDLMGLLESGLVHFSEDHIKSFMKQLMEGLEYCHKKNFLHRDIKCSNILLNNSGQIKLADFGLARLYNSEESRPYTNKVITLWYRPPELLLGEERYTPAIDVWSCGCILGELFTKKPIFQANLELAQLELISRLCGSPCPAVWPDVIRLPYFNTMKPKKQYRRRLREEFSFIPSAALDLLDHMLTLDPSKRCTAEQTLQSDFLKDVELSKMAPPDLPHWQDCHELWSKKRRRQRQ
T1 sequence (O75909 1-267 partner): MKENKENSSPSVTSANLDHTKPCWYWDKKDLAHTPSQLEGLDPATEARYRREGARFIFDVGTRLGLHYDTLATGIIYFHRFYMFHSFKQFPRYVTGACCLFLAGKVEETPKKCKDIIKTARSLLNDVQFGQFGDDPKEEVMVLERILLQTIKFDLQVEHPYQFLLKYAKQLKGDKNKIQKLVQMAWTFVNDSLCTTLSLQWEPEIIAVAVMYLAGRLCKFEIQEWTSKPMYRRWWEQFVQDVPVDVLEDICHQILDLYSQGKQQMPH
T1 sequence (Q16531 whole entry): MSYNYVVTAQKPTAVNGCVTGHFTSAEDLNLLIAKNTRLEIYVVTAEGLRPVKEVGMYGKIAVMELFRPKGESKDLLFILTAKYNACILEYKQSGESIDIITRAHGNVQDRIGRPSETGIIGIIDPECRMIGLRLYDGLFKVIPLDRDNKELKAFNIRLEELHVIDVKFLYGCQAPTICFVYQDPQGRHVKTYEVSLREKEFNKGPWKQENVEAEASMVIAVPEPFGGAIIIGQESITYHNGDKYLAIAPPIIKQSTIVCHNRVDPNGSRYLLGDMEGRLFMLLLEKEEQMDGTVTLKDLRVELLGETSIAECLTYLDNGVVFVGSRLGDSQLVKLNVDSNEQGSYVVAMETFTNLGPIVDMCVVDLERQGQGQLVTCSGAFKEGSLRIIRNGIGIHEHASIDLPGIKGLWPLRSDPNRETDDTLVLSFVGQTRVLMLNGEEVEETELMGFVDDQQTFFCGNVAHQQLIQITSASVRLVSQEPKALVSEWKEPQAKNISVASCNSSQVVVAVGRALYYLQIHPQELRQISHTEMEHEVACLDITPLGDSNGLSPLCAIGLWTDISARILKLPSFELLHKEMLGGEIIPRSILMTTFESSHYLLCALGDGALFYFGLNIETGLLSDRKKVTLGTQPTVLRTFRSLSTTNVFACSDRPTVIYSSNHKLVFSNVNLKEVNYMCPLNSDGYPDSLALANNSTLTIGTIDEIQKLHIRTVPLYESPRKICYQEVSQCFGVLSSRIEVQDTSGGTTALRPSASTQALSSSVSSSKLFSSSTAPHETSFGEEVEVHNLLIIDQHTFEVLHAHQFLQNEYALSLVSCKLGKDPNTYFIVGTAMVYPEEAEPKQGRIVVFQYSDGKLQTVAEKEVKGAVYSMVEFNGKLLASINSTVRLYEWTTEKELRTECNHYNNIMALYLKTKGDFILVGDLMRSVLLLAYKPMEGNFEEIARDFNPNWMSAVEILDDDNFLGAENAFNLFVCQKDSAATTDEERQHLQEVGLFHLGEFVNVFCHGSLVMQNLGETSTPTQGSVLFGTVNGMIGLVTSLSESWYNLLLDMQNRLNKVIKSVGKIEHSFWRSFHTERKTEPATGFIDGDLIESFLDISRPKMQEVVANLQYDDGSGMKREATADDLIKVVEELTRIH
Assay: TR-FRET ternary complex formation assay (compound titration)
Assay type: binding
Conditions: for TR-FRET signal at compound concentration: replicate titrations
Method in brief: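 Background fluorescence is reduced by reading 70 μs after excitation, and complex formation is followed as the 520:490 nm fluorescence ratio.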

[1] = compound concentration 0.468 nM
[2] = compound concentration 7.92001 nM
[3] = compound concentration 15.84 nM
[4] = compound concentration 30.96 nM
[5] = compound concentration 62.6401 nM
[6] = compound concentration 125.28 nM

## CCC(CO)Nc1nc(NCc2ccc(-c3ccccn3)cc2)c2ncn(C(C)C)c2n1 (centres unmarked) [CR8, reference compound]
[1]
  TR-FRET signal, individual replicate: 0.3192 and 0.333 and 0.3266 and 0.1622 and 0.1822 and 0.1545 and 0.1541
  TR-FRET signal at compound concentration: 0.3192 and 0.333 and 0.3266 and 0.1622 and 0.1822 and 0.1545 and 0.1541
Compound concentration 0.468 nM, raw replicate titration data
  TR-FRET signal at compound concentration 0.468 nM: 0.3192 and 0.333 and 0.3266 and 0.1622 and 0.1822 and 0.1545 and 0.1541 and 0.2195 and 0.2132 and 0.1986 and 0.2005 and 0.1618 and 0.1794 and 0.2366 and 0.2374 and 0.2769 and 0.2739 and 0.31
Compound concentration 0.468 nM, raw titration data
  TR-FRET signal at compound concentration 0.468 nM: 0.3192 and 0.333 and 0.3266 and 0.1622 and 0.1822 and 0.1545 and 0.1541 and 0.2195 and 0.2132 and 0.1986 and 0.2005 and 0.1618 and 0.1794 and 0.2366 and 0.2374 and 0.2769 and 0.2739 and 0.31
Compound concentration 2.16 nM
  TR-FRET signal, individual replicate: 0.4573 and 0.4311 and 0.4305 and 0.2659 and 0.27 and 0.2373 and 0.2241
  TR-FRET signal at compound concentration: 0.4573 and 0.4311 and 0.4305 and 0.2659 and 0.27 and 0.2373 and 0.2241
Compound concentration 2.16 nM, raw replicate titration data
  TR-FRET signal at compound concentration 2.16 nM: 0.4573 and 0.4311 and 0.4305 and 0.2659 and 0.27 and 0.2373 and 0.2241 and 0.3119 and 0.3007 and 0.2892 and 0.2693 and 0.2407 and 0.2691 and 0.3343 and 0.3434 and 0.3949 and 0.3941 and 0.4244
Compound concentration 2.16 nM, raw titration data
  TR-FRET signal at compound concentration 2.16 nM: 0.4573 and 0.4311 and 0.4305 and 0.2659 and 0.27 and 0.2373 and 0.2241 and 0.3119 and 0.3007 and 0.2892 and 0.2693 and 0.2407 and 0.2691 and 0.3343 and 0.3434 and 0.3949 and 0.3941 and 0.4244
Compound concentration 3.6 nM
  TR-FRET signal, individual replicate: 0.7291 and 0.6022 and 0.6555 and 0.4637 and 0.4981 and 0.4299 and 0.4143 and 0.532
  TR-FRET signal at compound concentration: 0.7291 and 0.6022 and 0.6555 and 0.4637 and 0.4981 and 0.4299 and 0.4143 and 0.532
Compound concentration 3.6 nM, raw replicate titration data
  TR-FRET signal at compound concentration 3.6 nM: 0.7291 and 0.6022 and 0.6555 and 0.4637 and 0.4981 and 0.4299 and 0.4143 and 0.532 and 0.5274 and 0.5046 and 0.4937 and 0.4479 and 0.5082 and 0.5733 and 0.5902 and 0.6794 and 0.6674 and 0.7173
Compound concentration 3.6 nM, raw titration data
  TR-FRET signal at compound concentration 3.6 nM: 0.7291 and 0.6022 and 0.6555 and 0.4637 and 0.4981 and 0.4299 and 0.4143 and 0.532 and 0.5274 and 0.5046 and 0.4937 and 0.4479 and 0.5082 and 0.5733 and 0.5902 and 0.6794 and 0.6674 and 0.7173
[2]
  TR-FRET signal, individual replicate: 1.345 and 0.9894 and 0.9813 and 0.8825 and 0.9549 and 0.8747 and 0.8749 and 0.9605
  TR-FRET signal at compound concentration: 1.345 and 0.9894 and 0.9813 and 0.8825 and 0.9549 and 0.8747 and 0.8749 and 0.9605
Compound concentration 7.92001 nM, raw replicate titration data
  TR-FRET signal at compound concentration 7.92001 nM: 1.345 and 0.9894 and 0.9813 and 0.8825 and 0.9549 and 0.8747 and 0.8749 and 0.9605 and 0.982 and 0.9498 and 0.9487 and 0.89 and 1.021 and 1.066 and 1.149 and 1.341 and 1.311 and 1.1731
Compound concentration 7.92001 nM, raw titration data
  TR-FRET signal at compound concentration 7.92001 nM: 1.345 and 0.9894 and 0.9813 and 0.8825 and 0.9549 and 0.8747 and 0.8749 and 0.9605 and 0.982 and 0.9498 and 0.9487 and 0.89 and 1.021 and 1.066 and 1.149 and 1.341 and 1.311 and 1.1731
[3]
  TR-FRET signal, individual replicate: 2.359 and 1.808 and 1.67 and 1.71 and 1.978 and 1.839 and 1.833 and 1.762
  TR-FRET signal at compound concentration: 2.359 and 1.808 and 1.67 and 1.71 and 1.978 and 1.839 and 1.833 and 1.762
Compound concentration 15.84 nM, raw replicate titration data
  TR-FRET signal at compound concentration 15.84 nM: 2.359 and 1.808 and 1.67 and 1.71 and 1.978 and 1.839 and 1.833 and 1.762 and 1.792 and 1.805 and 1.852 and 1.758 and 1.925 and 1.999 and 2.166 and 2.456 and 2.406 and 2.268
Compound concentration 15.84 nM, raw titration data
  TR-FRET signal at compound concentration 15.84 nM: 2.359 and 1.808 and 1.67 and 1.71 and 1.978 and 1.839 and 1.833 and 1.762 and 1.792 and 1.805 and 1.852 and 1.758 and 1.925 and 1.999 and 2.166 and 2.456 and 2.406 and 2.268
[4]
  TR-FRET signal, individual replicate: 3.429 and 2.93 and 2.851 and 3.1006 and 3.279 and 3.156 and 3.142 and 2.862
  TR-FRET signal at compound concentration: 3.429 and 2.93 and 2.851 and 3.1006 and 3.279 and 3.156 and 3.142 and 2.862
Compound concentration 30.96 nM, raw replicate titration data
  TR-FRET signal at compound concentration 30.96 nM: 3.429 and 2.93 and 2.851 and 3.1006 and 3.279 and 3.156 and 3.142 and 2.862 and 2.958 and 2.99 and 2.943 and 2.896 and 3.197 and 3.095 and 3.319 and 3.517 and 3.418 and 3.349
Compound concentration 30.96 nM, raw titration data
  TR-FRET signal at compound concentration 30.96 nM: 3.429 and 2.93 and 2.851 and 3.1006 and 3.279 and 3.156 and 3.142 and 2.862 and 2.958 and 2.99 and 2.943 and 2.896 and 3.197 and 3.095 and 3.319 and 3.517 and 3.418 and 3.349
[5]
  TR-FRET signal, individual replicate: 3.992 and 3.667 and 3.67 (2×) and 3.796 and 3.836 and 3.683 and 3.652
  TR-FRET signal at compound concentration: 3.992 and 3.667 and 3.67 (2×) and 3.796 and 3.836 and 3.683 and 3.652
Compound concentration 62.6401 nM, raw replicate titration data
  TR-FRET signal at compound concentration 62.6401 nM: 3.992 and 3.667 and 3.67 (2×) and 3.796 and 3.836 and 3.683 and 3.652 and 3.6831 and 3.54 and 3.542 and 3.62 and 3.792 and 3.69 and 3.855 and 3.914 and 3.849 and 3.7896
Compound concentration 62.6401 nM, raw titration data
  TR-FRET signal at compound concentration 62.6401 nM: 3.992 and 3.667 and 3.67 (2×) and 3.796 and 3.836 and 3.683 and 3.652 and 3.6831 and 3.54 and 3.542 and 3.62 and 3.792 and 3.69 and 3.855 and 3.914 and 3.849 and 3.7896
[6]
  TR-FRET signal, individual replicate: 4.095 and 3.873 and 3.877 and 4.034 and 3.962 and 3.842 and 3.836 and 3.935
  TR-FRET signal at compound concentration: 4.095 and 3.873 and 3.877 and 4.034 and 3.962 and 3.842 and 3.836 and 3.935
Compound concentration 125.28 nM, raw replicate titration data
  TR-FRET signal at compound concentration 125.28 nM: 4.095 and 3.873 and 3.877 and 4.034 and 3.962 and 3.842 and 3.836 and 3.935 and 3.986 and 3.722 and 3.719 and 3.7404 and 3.636 and 3.869 and 4.026 and 4.013 and 4.003 and 3.8874
Compound concentration 125.28 nM, raw titration data
  TR-FRET signal at compound concentration 125.28 nM: 4.095 and 3.873 and 3.877 and 4.034 and 3.962 and 3.842 and 3.836 and 3.935 and 3.986 and 3.722 and 3.719 and 3.7404 and 3.636 and 3.869 and 4.026 and 4.013 and 4.003 and 3.8874
